US7642362B2, “Compounds as semaphorin inhibitors” (Dainippon Sumitomo Pharma Co., Ltd., priority 2002, dated 2010)

Tests used:
[1] = target: T1, mouse semaphorin 3A (Sema3A) (Mus musculus, UniProt O08665); assay: Suppressing action on the growth cone collapse activity of Sema3A in chick dorsal root ganglion culture; assay type: cell-based; details: E7 chick embryo dorsal root ganglions; compound added 1 hour before 3 units/ml mouse Sema3A; growth cone collapse rate after another 1 hour
T1 sequence (O08665 21-772): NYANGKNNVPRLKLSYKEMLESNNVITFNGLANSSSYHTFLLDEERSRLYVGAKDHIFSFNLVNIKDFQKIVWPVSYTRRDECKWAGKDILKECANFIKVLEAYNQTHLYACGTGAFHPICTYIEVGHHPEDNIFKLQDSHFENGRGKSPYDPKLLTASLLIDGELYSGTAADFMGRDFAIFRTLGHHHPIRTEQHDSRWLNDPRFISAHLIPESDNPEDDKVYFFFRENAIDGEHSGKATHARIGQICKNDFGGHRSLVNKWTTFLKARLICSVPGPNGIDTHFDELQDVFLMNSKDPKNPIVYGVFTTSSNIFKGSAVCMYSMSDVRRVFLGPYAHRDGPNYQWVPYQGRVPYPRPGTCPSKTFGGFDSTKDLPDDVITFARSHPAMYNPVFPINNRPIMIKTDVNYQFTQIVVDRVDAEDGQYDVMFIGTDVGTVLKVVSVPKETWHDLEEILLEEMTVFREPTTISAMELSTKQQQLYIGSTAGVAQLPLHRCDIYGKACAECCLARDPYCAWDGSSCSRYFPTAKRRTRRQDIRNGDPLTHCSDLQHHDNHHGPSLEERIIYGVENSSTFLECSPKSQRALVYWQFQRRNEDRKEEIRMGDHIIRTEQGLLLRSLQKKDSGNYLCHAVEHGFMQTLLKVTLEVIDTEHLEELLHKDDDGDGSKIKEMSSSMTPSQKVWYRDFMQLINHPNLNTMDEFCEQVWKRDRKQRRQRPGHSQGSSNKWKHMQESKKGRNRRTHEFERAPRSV
Excerpt: The growth cone collapse activity of semaphorin described above means an activity to make growth cones disappear. This activity is observed after performing the following steps: cultivating nerve cells (generally tissue explants of ganglions) for a given period of time in vitro until the extended neurites as well as the growth cones at the edge of said neurites can be observed; and then adding thereto a given concentration (e.g. about 3 unit/ml; 1 unit/ml is defined as a semaphorin concentration in which 50% of the growth cones are collapsed) of semaphorin and cultivating for another given period of time (e.g. one hour). In order to get the extended neurites and the growth cones at the edge of said neurites ready for the observation, the nerve cells are generally cultivated for 10 to 20 hours in vitro, which duration can be altered according to a nerve variant and culture conditions. When the growth cone collapse caused by semaphorin is suppressed by, for example, the addition of a compound to this experimental system at an appropriate concentration about one hour prior to the addition of semaphorin, then such compound is regarded as a semaphorin inhibitor, especially as a compound with suppressing action on the growth cone collapse activity of semaphorin.
A 96-well plate (Sumitomo Bakelite Co., Ltd.) pre-coated with polylysine was further coated with laminine (20 μg/ml of laminine, for 1 hour at room temperature). Each well was added with 100 μl of medium (F12 medium containing 10% bovine fetal serum, 20 ng/ml of NGF, 100 units/ml of penicillin and 100 μg/ml of streptomycin) which medium was then inoculated with dorsal root nerve ganglions excised from E7 (Embryonic day 7) chick embryo and cultured for 16 to 20 hours under 5% CO2 at 37° C. Subsequently, the object compounds were added to media at various concentrations and 3 units/ml of mouse semaphorin 3A (Sema3A) was added after cultivating for 1 hour. The cultures were further incubated for another 1 hour. Glutaraldehyde was quickly added therein after said 1 hour to make the final concentration 1%. The cultures were then left for 15 minutes at room temperature so that the tissue sections were fixed, and collapse rates of the growth cones were microscopically determined. IC50 values was defined as a concentration of each compound at which concentration the collapse rate C equals to(A+B)/2, wherein (A) % is the collapse rate of growth cone of the negative control group (neither compounds nor Sema3A was added); (B) % is the collapse rate of growth cone of the positive control group (compounds were not added but Sema3A was added); and (C) % is the collapse rate of growth cone of the test group (each one compound and Sema3A were added).

[2] = Solubility of the purified compounds in solvents; assay type: physicochemical
semaphorin = assay: Semaphorin inhibitory activity (earlier finding of the inventors)
nerve regeneration = assay: Nerve regeneration in vivo (earlier finding of the inventors)

| Compound | IC50 [1] | Solubility in DMSO [2] | Solubility in hexane [2] | Solubility in methanol [2] | Solubility in water [2] | Semaphorin inhibitory activity (semaphorin) | Promotion of nerve regeneration (nerve regeneration) |
| --- | --- | --- | --- | --- | --- | --- | --- |
| CC(=O)[C@]12c3c(cc(O)c(O)c3C(=O)O)OC[C@]13Cc1c(oc4cc(O)c(O)c(C(=O)O)c4c1=O)[C@H]2C(C)=C(O)C3=O (relative stereo) [SPF-3059-16] | 0.861 µM | soluble | Insoluble | soluble | Insoluble |  |  |
| CC(=O)c1c(C)c(C(=O)C2COc3cc(O)c(O)c(C(=O)O)c3C2=O)cc2c(=O)c3c(C(=O)O)c(O)c(O)cc3oc12 (centres unmarked) [SPF-3059-1] |  |  |  |  |  | have semaphorin inhibitory activity | promote nerve regeneration in vivo |
| Cc1cc(=O)c2c(o1)-c1c(c3c(c(O)c1C(=O)O)OC1(C)Cc4oc5cc(O)c(O)c(C(=O)O)c5c(=O)c4C3O1)OC2 (centres unmarked) [SPF-3059-8] | 3.46 µM | soluble | Insoluble | soluble | Insoluble |  |  |
| CC1=Cc2oc3cc(O)c(O)c(C(=O)O)c3c(=O)c2C(c2c(C)oc3c(c2=O)COc2cc(O)c(O)c(C(=O)O)c2-3)O1 (centres unmarked) [SPF-3059-17] | 0.225 µM | soluble | Insoluble | soluble | Insoluble |  |  |
| CC12Cc3oc4cc(O)c(O)c(C(=O)O)c4c(=O)c3C(O1)C1C(=O)C3=C(OC1(C)O2)c1c(cc(O)c(O)c1C(=O)O)OC3 (centres unmarked) [SPF-3059-19] | 0.838 µM | soluble | Insoluble | soluble | Insoluble |  |  |
| CC(=O)c1c(C)c(C(=O)c2coc3cc(O)c(O)c(C(=O)O)c3c2=O)cc2c(=O)c3c(O)cc(O)c(O)c3oc12 [SPF-3059-22] | 0.912 µM | soluble | Insoluble | soluble | Insoluble |  |  |
| CC(=O)c1cc(-c2c(C(C)=O)cc3c(=O)c4c(C(=O)O)c(O)c(O)cc4oc3c2C(C)=O)cc(C(=O)c2c(O)cc(O)c(O)c2C(=O)O)c1O [SPF-3059-23] | 0.728 µM | soluble | Insoluble | soluble | Insoluble |  |  |
| CC(=O)c1c2c(c3ccc4c(=O)c5c(C(=O)O)c(O)c(O)cc5oc4c3c1C)C(=O)C1(CC2)COc2cc(O)c(O)c(C(=O)O)c2C1=O (centres unmarked) [SPF-3059-38] | 0.0199 µM | soluble | Insoluble | soluble | Insoluble |  |  |
| CC(=O)C1=C2c3cc(O)c(O)cc3OCC2(C(=O)/C=C(/C)O)Cc2c1oc1cc(O)c(O)c(C(=O)O)c1c2=O (centres unmarked) [SPF-3059-40] | 0.233 µM | soluble | Insoluble | soluble | Insoluble |  |  |
| CC(=O)c1c(C)c(-c2oc3cc(O)c(O)c(C(=O)O)c3c(=O)c2Cc2c(C)oc3c(c2=O)COc2cc(O)c(O)c(C(=O)O)c2-3)cc2c(=O)c3cc(O)c(O)cc3oc12 [SPF-3059-42] | 0.0781 µM | soluble | Insoluble | soluble | Insoluble |  |  |
